In one assay the test system is soluble epoxide hydrolase (sEH). In words: Fluorescent assay for soluble epoxide hydrolase (CMNPC substrate), percent inhibition at the recited concentration. Type of assay: biochemical. The conditions noted are these: Inhibition Conc. 50 nM. The source says: Fluorescent Assay for Mouse and Human Soluble Epoxide Hydrolase Recombinant mouse sEH (MsEH) and human sEH (HsEH) were produced in a baculovirus expression system as previously reported. Grant et al., J. Biol. Chem., 268:17628-17633 (1993); Beetham et al., Arch. Biochem. Biophys., 305:197-201 (1993). The expressed proteins were purified from cell lysate by affinity chromatography. Wixtrom et al., Anal. Biochem., 169:71-80 (1988). Protein concentration was quantified using the Pierce BCA assay using bovine serum albumin as the calibrating standard. The preparations were at least 97% pure as judged by SDS-PAGE and scanning densitometry. They contained no detectable esterase or glutathione transferase activity which can interfere with the assay. The assay was also evaluated with similar results in crude cell lysates or homogenate of tissues. The IC50s for each inhibitor were determined according to the following procedure: […] Jones P. D. et al.; Analytical Biochemistry 2005; 343: pp. 66-75) Bis/Tris HCl 25 mM pH 7.0 containing 0.1 mg/mL of BSA (buffer […] at 0.25 mM in DMSO. Mother solution of enzyme in buffer A (Mouse sEH at 6 μg/mL and Human sEH at 5 μg/mL). Inhibitor dissolved in DMSO at the appropriate concentration. In a black 96 well plate, fill all the wells with 150 μL of buffer A. Add 2 μL of DMSO in well A2 and A3, and then add 2 μL of inhibitor solution in A1 and A4 through A12. Add 150 μL of buffer A in row A, then mix several time and transfer 150 μL to row B. Repeat this operation up to row H. The 150 μL removed from row H is discarded. Add 20 μL of buffer A in column 1 and 2, then add 20 μL of enzyme solution to column 3 to 12. Incubate the plate for 5 minutes in the plate reader at 30° C. During incubation prepare the working solution of substrate by mixing 3.68 mL of buffer A (4×0.920 mL) with 266 μL (2×133 μL) of substrate solution). At t=0, add 30 μL of working substrate solution with multi-channel pipette labeled “Briggs 303” and start the reading ([S]final: 5 μM). Read with ex: 330 nm (20 nm) and em: 465 nm (20 nm) every 30 second for 10 minutes. The velocities are used to analyze and calculate the IC50s. Tables 1-7 above provide the percent inhibition of the enzyme when tested at the concentration recited therein.
Take `O=C(Nc1ccc(C(F)(F)F)cc1)NC1CCN(C(=O)Nc2ccc(C(F)(F)F)cc2)CC1` [Compound 7-16, N-(4-(trifluoromethyl)phenyl)-4-(3-(4-(trifluoro-methyl)phenyl)ureido)-piperidine-1-carboxamide]: the “% inh.” value is listed as 98%. Still for that read-out and setting: the figure for `Cn1cnc(C(=O)N2CCC(NC(=O)NC34CC5CC(CC(C5)C3)C4)CC2)c1` [Compound 7-39, 1-adamantyl-3-(1-(1-methyl-1H-imidazole-4-carbonyl)piperidin-4-yl)urea] is 89%; for `O=C(NC1CCN(S(=O)(=O)c2ccc(C(=O)O)cc2)CC1)NC12CC3CC(CC(C3)C1)C2` [Compound 7-45, 4-(4-(3-adamantylureido)piperidin-1-ylsulfonyl)benzoic acid] it is 92%. As to `CC(C)(C)OC(=O)N1CCC(NC(=O)Nc2ccc(C(F)(F)F)cc2)CC1` [Compound 7-47, tert-butyl 4-(3-(4-(trifluoromethyl)phenyl)ureido)piperidine-1-carboxylate], the “% inh.” value is 100%. In the case of `CC(C)(C)C(=O)N1CCC(NC(=O)NC23CC4CC(CC(C4)C2)C3)CC1` [Compound 7-13, 1-(1-adamantyl)-3-(1-pivaloylpiperidin-4-yl)urea], the “% inh.” value is reported as 91%. `O=C(NC1CCCCC1)NC1CCN(S(=O)(=O)c2ccc(Cl)cc2)CC1` [Compound 7-42, 1-(1-(4-chlorophenylsulfonyl)piperidin-4-yl)-3-cyclohexylurea]: the “% inh.” value is 95%. In the case of `CC(C)OC(=O)N1CCC(NC(=O)Nc2ccc(C(F)(F)F)cc2)CC1` [Compound 7-20, isopropyl 4-(3-(4-(trifluoromethyl)phenyl)ureido)piperidine-1-carboxylate], the “% inh.” value was 95%. As for `COC(=O)N1CCC(NC(=O)Nc2ccc(C(F)(F)F)cc2)CC1` [Compound 7-14, methyl 4-(3-(4-(trifluoromethyl)phenyl)ureido)piperidine-1-carboxylate], the “% inh.” value is 92%. Same read-out and setting: with `CC(=O)N1CCC(NC(=O)NCC23CC4CC(CC(C4)C2)C3)CC1` [Compound 1-1, 1-(1-acetyl-piperidin-4-yl)-3-(1-adamantyl-methyl)-urea] the figure was 87%. As to `CC(C)(C)OC(=O)N1CCC(NC(=O)Nc2ccc3ncccc3c2)CC1` [Compound 6-1, tert-butyl 4-(3-quinolin-6-yl-ureido)piperidine-1-carboxylate], the “% inh.” value stood at 86%. Take `COc1ccc(S(=O)(=O)N2CCC(NC(=O)NC34CC5CC(CC(C5)C3)C4)CC2)cc1` [Compound 7-1, 1-(1-adamantyl)-3-(1-(4-methoxyphenylsulfonyl)-piperidin-4-yl)urea]: the “% inh.” value turned out to be 99%. Consider `NS(=O)(=O)c1ccc(C(=O)N2CCC(NC(=O)Nc3ccc(OC(F)(F)F)cc3)CC2)cc1` [Compound 4-2, 4-(4-(3-(4-(trifluoromethoxy)-phenyl)ureido)-piperidine-1-carbonyl)benzenesulfonamide], for which the “% inh.” value is 98%. Still for that read-out and setting: with `NS(=O)(=O)c1cccc(C(=O)N2CCC(NC(=O)NC34CC5CC(CC(C5)C3)C4)CC2)c1` [Compound 4-4, 3-(4-(3-(1-adamantyl)ureido)-piperidine-1-carbonyl)benzene-sulfonamide] the figure was 93%; with `O=C(Nc1ccc(C(F)(F)F)cc1)NC1CCN(c2ccccc2)CC1` [Compound 2-5, 1-(1-phenylpiperidin-4-yl)-3-(4-(trifluoro-methyl)phenyl)urea], 99%. On the same count and under the same terms, with `O=C(NC1CCN(S(=O)(=O)Cc2ccccc2)CC1)NC12CC3CC(CC(C3)C1)C2` [Compound 7-29, 1-(1-(benzylsulfonyl)piperidin-4-yl)-3-adamantylurea] the figure was 93%.

For `O=C(NC1CCCCC1)NC1CCN(C(=O)c2ccccn2)CC1` [Compound 7-40, 1-cyclohexyl-3-(1-picolinoylpiperidin-4-yl)urea], the “% inh.” value amounted to 82%.

Still in this assay, the particulars now being: Inhibition Conc. 200 nM.
Take `CC(=O)N1CCC(NC(=O)NC23CC4CC(C2)C(=O)C(C4)C3)CC1` [Compound 3-9, 1-(1-acetylpiperidin-4-yl)-3-(4-oxoadamantyl)urea]: the “% inh.” value worked out at 42%. With `CC(=O)N1CCC(NC(=O)NC23CC4CC(C2)C(F)C(C4)C3)CC1` (centres unmarked) [Compound 3-11, 1-(1-acetylpiperidin-4-yl)-3-(4-fluoroadamantyl)urea], the “% inh.” value amounted to 88%. On the same count and under the same terms, with `COCC(=O)N1CCC(NC(=O)NC23CC4CC(CC(C4)C2)C3)CC1` [Compound 7-76, 1-adamantyl-3-(1-(2-methoxyacetyl)piperidin-4-yl)urea] the figure was 94%; with `COC(=O)c1ccc(NC(=O)NC2CCN(C(=O)OC(C)(C)C)CC2)s1` [Compound 6-17, tert-butyl 4-(3-(5-(methoxycarbonyl)thiophen-2-yl)ureido)piperidine-1-carboxylate], 87%.

Still in this assay, the particulars now being: Inhibition Conc. 500 nM.
Consider `CC(=O)N1CCC(NC(=O)NC23CC4(F)CC(F)(CC(F)(C4)C2)C3)CC1` [Compound 3-1, 1-(1-acetylpiperidin-4-yl)-3-(3,5,7-trifluoroadamant-1-yl)urea], for which the “% inh.” value turned out to be 70%.

As to `CC(=O)N1CCC(NC(=O)NC23CC4CC(F)(CC(F)(C4)C2)C3)CC1` [Compound 3-3, 1-(1-acetylpiperidin-4-yl)-3-(3,5-difluoroadamant-1-yl)urea], the “% inh.” value was determined as 63%.

Staying with this assay, now noted: Inhibition Conc. 2000 nM.
Regarding `CC(=O)N1CCC(NC(=O)NCC2CCOCC2)CC1` [Compound 1-4, 1-(1-acetylpiperidin-4-yl)-3-((tetrahydro-2H-pyran-4-yl)methyl)urea], the “% inh.” value is on record as 80%. On the same count and under the same terms, with `COC(=O)c1ccc(CNC(=O)NC2CCN(C(C)=O)CC2)cc1` [Compound 1-8, methyl 4-((3-(1-acetylpiperidin-4-yl)ureido)methyl)benzoate] the figure was 95%; with `O=C(Nc1ccc(OC(F)(F)F)cc1)NC1CCN(c2ccc(F)cc2)CC1` [Compound 2-11, 1-(1-(4-fluorophenyl)piperidin-4-yl)-3-(4-(trifluoromethoxy)phenyl)urea], 100%; with `COC(=O)c1ccc(NC(=O)NC2CCN(C(=O)OC(C)(C)C)CC2)o1` [Compound 6-18, tert-butyl 4-(3-(5-(methoxycarbonyl)furan-2-yl)ureido)piperidine-1-carboxylate], 89%. For `CC(=O)N1CCC(NC(=O)Nc2ccc(N(C)C)cc2)CC1` [Compound 7-52, 1-(1-acetylpiperidin-4-yl)-3-(4-(dimethylamino)phenyl)urea], the “% inh.” value turned out to be 44%. The same measure, in the same setting: the figure for `COc1ccc(NC(=O)NC2CCN(C(=O)C(C)(C)C)CC2)cn1` [Compound 6-13, 1-(6-methoxypyridin-3-yl)-3-(1-pivaloylpiperidin-4-yl)urea] is 97%.

The assay is the same for the next values; noted with them: Inhibition Conc. 5000 nM.
As to `CC(=O)N1CCC(NC(=O)NC2CCCC2)CC1` [Compound 7-18, 1-(1-acetylpiperidin-4-yl)-3-cyclopentylurea], the “% inh.” value was 74%. Still for that read-out and setting: with `O=C(NC1CCN(c2ccncc2)CC1)NC12CC3CC(CC(C3)C1)C2` [Compound 2-4, 1-(1-adamantyl)-3-(1-(pyridin-4-yl)piperidin-4-yl)urea] the figure was 92%.

The assay is the same for the next values; noted with them: Inhibition Conc. 50000 nM.
As to `CC(=O)N1CCC(NC(=O)Nc2ccncc2)CC1` [Compound 6-7, 1-(1-acetyl-piperidin-4-yl)-3-(pyridin-4-yl)urea], the “% inh.” value is on record as 53%. As to `CC(=O)N1CCC(NC(=O)NC23CC4CC(CC(C4)C2O)C3)CC1` (centres unmarked) [Compound 3-6, 1-(1-acetylpiperidin-4-yl)-3-(2-hydroxyadamant-1-yl)urea], the “% inh.” value stood at 94%.
